According to paper PMC5665643, “CHIP as a membrane-shuttling proteostasis sensor” (eLife, 2017):
“Also recorded” adds a separate entry of the source.

What was measured:
[1] = system: EGFP-CHIP in murine embryonic fibroblasts; experiment: EGFP-CHIP relocalization to membranes in murine embryonic fibroblasts (fluorescence microscopy); type: cell-based; conditions: N = 3; for EGFP-CHIP relocalization to the plasma membrane: 20 μM inhibitor for 4 hr, 37°C, serum-free medium, without fixation, EGFP as control, ***p<0.001, chi-square
[2] = system: EGFP-CHIP-K30A in murine embryonic fibroblasts; experiment: Release of EGFP-CHIP-K30A from cellular membranes (PLD inhibitors); type: cell-based; conditions: 12 hr inhibitor treatment in serum-free DMEM, without fixation; *p<0.05 (chi-square); N = 4
[3] = system: CHIP; experiment: Liposome pelleting assay, effect of lipids and HSP70-C on CHIP association; type: binding, Human
Method: (§1) Human recombinant full length CHIP and its truncated versions were purified from Escherichia coli BL21 cells using Glutathion Sepharose 4B (GE Healthcare). Sepharose-bound GST-CHIP was subjected to overnight treatment with PreScission protease and the released tag-free protein was collected. Size exclusion chromatography on a HiLoad Superdex 200 column (GE Healthcare) followed to ensure the purity and homogeneity of proteins. All CHIP variants were kept in HSP70 buffer (25 mM HEPES KOH pH 7.5, 150 mM KCl, 5 mM MgCl2, 5% glycerol, 1 mM DTT).
Human C-terminal HSP70 6xHis-tagged N-terminally was purified from Escherichia coli BL21 cells using 1 ml HisTrap column (GE Healthcare). Bound protein was eluted by applying an imidazole gradient. Fractions containing the protein were subjected to size exclusion chromatography using HiLoad Superdex 200 in HSP70 buffer. His-NQO1, His-UbcH5a, His-Uev1a and His-Ubc13 were purified similarly except that PBS/1 mM DTT was used during size exclusion chromatography. Purity of recombinant protein was evaluated by SDS-PAGE and Coomassie BB G-250 (CBB) staining. Concentration of proteins was determined measuring absorbance at 280 nm and using ProtParam (ExPASy) to calculate respective extinction coefficients. Proteins were aliquoted, snap-frozen and stored at −80°C.
Liposomes were prepared by mixing 1,2-dioleoyl-sn-glycero-3-phosphocholine (DOPC) with indicated amount (wt/wt) of either 1,2-dipalmitoyl-sn-glycero-3-phosphate (phosphatidic acid) or (wt/wt) 1,2-dipalmitoyl-sn-glycero-3-phosphoinositol-4-phosphate (PI4P) in a 1.5 ml reaction tube (Eppendorf). Lipid mixtures were dried under a nitrogen stream and kept for 1 hr under vacuum. Liposomes were rehydrated in 1 ml filtered reconstitution buffer (25 mM HEPES KOH pH 7.5, 50 mM NaCl) to a concentration of 10 mM lipids. Liposomes were reconstituted by shaking at 2000 rpm for 1 hr at 50°C, followed by sonication for 1 hr at 50°C in a water bath. The liposome suspension was subjected to five freeze-thaw cycles in liquid nitrogen to promote unilamellar vesicle formation, aliquoted in 200 µl and pulse-sonicated for 8 s at 45% output with MS72 sonotrode (Bandelin) to create a population of homogenously sized liposomes as determined using NanoSight (Malvern Instruments). Sonicated liposomes were pooled, aliquoted again, snap-frozen and stored at −80°C.
2 mM liposomes were mixed with 2 µM recombinant protein in 50 µl reconstitution buffer. The suspension was incubated shaking at 450 rpm for 30 min at 37°C. Liposomes with bound protein were sedimented by ultracentrifugation at 100,000 g for 30 min at 25°C. Liposome pellet was washed with 50 µl of reconstitution buffer and sedimented again at 100,000 g for 30 min at 25°C. The pellet was resuspended in 10 µl reconstitution buffer, resolved by SDS-PAGE and analyzed by CBB staining. Images were acquired with ChemiDoc MP imaging system and quantified using Image Lab 5.0 software (both from Bio-Rad Laboratories). For competition assays, indicated amounts of C-terminal HSP70 were preincubated with 2 µM CHIP for 20 min at 37°C prior to co-sedimentation.

[4] = system: CHIP; experiment: Lipid-binding assay (membrane-immobilized lipids, lipid arrays); set-up: species or system Human; conditions: for CHIP binding to phospholipid on lipid array: lipid strips/PIP strips, 0.5 µg/ml wild-type chaperone-free CHIP, 1 hr at RT, anti-C-CHIP antibody
Method: as §1
Membrane-immobilized lipids (Membrane lipid strips P-6002 and PIP strips P-6001) were purchased from Echelon Research Laboratories. The strips were incubated with blocking buffer (3% fatty acid free BSA, 0.1% (v/v) Tween-20 in PBS pH 7.5) for 1 hr at RT. 0.5 µg/ml of purified wild-type or mutant CHIP was added in blocking buffer and incubated for 1 hr at RT. Strips were washed and bound proteins were detected using anti-C-CHIP antibody. For competition experiments, ten times molar excess of C-terminal HSP70 was added to CHIP in blocking buffer.

[5] = biological target: C-terminal Hsp70-interacting protein (CHIP), human recombinant full length, wild type, tag-free (human) (UniProt Q9UNE7)
[6] = Liposome pelleting assay, binding of CHIP and truncated variants to liposomes; conditions: N = 3
Source text: For mammalian expression of EGFP, the expression vector pEGFP-N1 from Clontech (Mountain View, CA) was used. N-terminal EGFP-CHIP fusion protein was constructed by cloning human CHIP coding sequence in pEGFP-C2 vector (Clontech) using HindIII and BamHI restriction sites. A fusion between the N-terminalβ−1,4-galactosyltransferase1 and EGFP was used as a marker of the Golgi apparatus, farnesylated EGFP as a marker of plasma membrane (both constructs from Clontech). Untagged and 3xFLAG-tagged human CHIP for mammalian expression were constructed in pCMV-10 vector (Sigma-Aldrich). HSP70 was amplified from human cDNA and cloned into pcDNA3. 1 expression vector without a tag. HSP70 lacking the last amino acid (HSP70ΔD) was prepared by site-directed mutagenesis. Vectors of full-length CHIP, UbcH5a and mutant NQO1 for bacterial expression were prepared as described ([Martínez-Limón et al., 2016]). The TPR domain bacterial expression vector (TPR) was created by exchanging glutamate152 codon to a stop codon in the full-length CHIP vector. CHIP without TPR domain (ΔTPR) was cloned by deleting the sequence between serine25 and argininge130 by means of PCR. […]
Liposomes were prepared by mixing 1,2-dioleoyl-sn-glycero-3-phosphocholine (DOPC) with indicated amount (wt/wt) of either 1,2-dipalmitoyl-sn-glycero-3-phosphate (phosphatidic acid) or (wt/wt) 1,2-dipalmitoyl-sn-glycero-3-phosphoinositol-4-phosphate (PI4P) in a 1.5 ml reaction tube (Eppendorf). […] The liposome suspension was subjected to five freeze-thaw cycles in liquid nitrogen to promote unilamellar vesicle formation, aliquoted in 200 µl and pulse-sonicated for 8 s at 45% output with MS72 sonotrode (Bandelin) to create a population of homogenously sized liposomes as determined using NanoSight (Malvern Instruments). […]
2 mM liposomes were mixed with 2 µM recombinant protein in 50 µl reconstitution buffer. […] The pellet was resuspended in 10 µl reconstitution buffer, resolved by SDS-PAGE and analyzed by CBB staining. Images were acquired with ChemiDoc MP imaging system and quantified using Image Lab 5.0 software (both from Bio-Rad Laboratories). […]

For `C=CCNC1=C2C[C@@H](C)C[C@H](OC)[C@H](O)[C@@H](C)/C=C(\C)[C@H](OC(N)=O)[C@@H](OC)/C=C\C=C(/C)C(=O)NC(=CC1=O)C2=O` [17-AAG, 17-(Allylamino)−17-demethoxygeldanamycin], the “EGFP-CHIP relocalization to the plasma membrane” value [1] was “mimic the heat shock effect in regard to CHIP relocalization to membranes in murine fibroblasts; also recorded: leads to the appearance of EGFP-CHIP, but not of EGFP, at the plasma membrane”.

For `O=C(NCCN1CCC(n2c(=O)[nH]c3ccccc32)CC1)c1cc2cc(F)ccc2[nH]1` [FIPI], the “release of EGFP-CHIP-K30A from membranes into the cytosol” value [2] was “efficiently released chaperone-free CHIP into the cytosol”.

In the case of `CCCCCCCCCCCCCCCC(=O)OC[C@H](COP(=O)(O)O[C@H]1[C@H](O)[C@@H](O)[C@H](OP(=O)(O)O)[C@@H](O)[C@H]1O)OC(=O)CCCCCCCCCCCCCCC` [PI4P, 1,2-dipalmitoyl-sn-glycero-3-phosphoinositol-4-phosphate], the “CHIP association with DOPC-liposomes (pelleting), 1% PI4P” value ([3]; 1% PI4P, 2 mM liposomes, 2 µM CHIP, 30 min at 37°C, N = 3) is reported as “weakly”, the “CHIP association with DOPC-liposomes (pelleting), 5% PI4P” value ([3]; 5% PI4P, 2 mM liposomes, 2 µM CHIP, 30 min at 37°C, ***p<0.001, N = 3) is reported as “strongly enhanced association of liposomes with CHIP; also recorded: strongly enhance CHIP association with DOPC-liposomes” and the “CHIP binding to phospholipid on lipid array” value [4] is reported as “especially PI4P”.

In the case of `N#Cc1ccc(COC[C@H]2O[C@@H](n3c(NCc4ccc(Cl)c(Cl)c4)nc4c(N)ncnc43)[C@H](O)[C@@H]2O)cc1` [VER-155008], the “EGFP-CHIP relocalization to the plasma membrane” value [1] is reported as “mimic the heat shock effect in regard to CHIP relocalization to membranes in murine fibroblasts; also recorded: leads to the appearance of EGFP-CHIP, but not of EGFP, at the plasma membrane”.

With `C[C@@H](CN1CCC(n2c(=O)[nH]c3cc(Cl)ccc32)CC1)NC(=O)c1ccc2ccccc2c1` [VU0155069] the “release of EGFP-CHIP-K30A from membranes into the cytosol” value [2] was “efficiently released chaperone-free CHIP into the cytosol”.

For `O[As](O)O` [arsenite], the “CHIP relocalization to membranes” value [1] was “does not induce CHIP relocalization to membranes in murine fibroblasts; also recorded: not induced by arsenite treatment”.

Molecule “C-terminal domain of HSP70, 260 amino acids (HSP70-C) (from UniProt P0DMV8 382-641) (domain or fragment)” has an association of 2 µM CHIP with liposomes in the pelleting assay after preincubation with HSP70-C (1 µM, substoichiometric, to an equimolar amount), relative to the control without HSP70-C (% of the control) [5] of 30.

In the case of “HSP70-C: last 260 amino acids of human HSPA1A, C-terminal domain of HSP70”, the “inhibition of CHIP interaction with liposomes” value ([3]; 1 μM HSP70-C (substoichiometric), preincubated with 2 µM CHIP 20 min at 37°C, N = 4) is reported as “efficiently prevented CHIP from interacting with liposomes”, the “CHIP association with liposomes, % of control” value ([3]; equimolar HSP70-C, preincubated with 2 µM CHIP 20 min at 37°C, N = 4) is reported as “ca. 30%” and the “CHIP binding to lipid arrays in the presence of HSP70-C” value ([4]; ten-fold molar excess HSP70-C, 0.5 µg/ml CHIP, RT) is reported as “blocks interaction of CHIP with phospholipids; also recorded: complete loss of binding to phosphatidylinositol monophosphates and only residual interaction with phosphatidic acid”.

For “phosphatidylinositol-3,4,5-trisphosphate”, the “CHIP binding to phospholipid on lipid array” value [4] was “no binding to phosphatidylinositol-3,4,5-trisphosphate detected”.

B1: TPR domain: glutamate152 codon exchanged to a stop codon in full-length CHIP (protein, UniProt Q9UNE7 1-151, looked up, fragment)
chain: MKGKEEKEGGARLGAGGGSPEKSPSAQELKEQGNRLFVGRKYPEAAACYGRAITRNPLVAVYYTNRALCYLKMQQHEQALADCRRALELDGQSVKAHFFLGQCQLEMESYDEAIANLQRAYSLAKEQRLNFGDDIPSALRIAKKKRWNSIE
modifications: TPR domain
notes: glutamate152 codon exchanged to a stop codon in full-length CHIP
With B1 the “binding capacity versus full-length CHIP” value ([6]; 5% PA-containing DOPC-liposomes) was “still surpassed the full-length CHIP in binding capacity” and the “binding efficiency relative to full-length protein” value ([6]; isolated TPR domain, 20% PA-containing liposomes, 2 µM protein) was “ca. 160%”.
